Laboratory results as given in patent US20240252472A1, “COMBINATIONS FOR TREATING CANCER” (Purdue Pharma L.P., priority 2023, published 2024).

Columns and labels:
[1] = tested on: subcutaneous plasmacytoma derived from MM1.S cells; assay: Second subcutaneous plasmacytoma model, CB17-SCID mice; format: in vivo; conditions: EDO-S101 30 mg/kg i.v. weekly, daratumumab 8 mg/kg i.p. weekly, 4 weeks; vehicle 34 days
Text: For the second subcutaneous human plasmacytoma model, CB17-SCID mice (The Jackson Laboratory) were used. CB17-SCID mice were randomised into groups (n=5). The design of the experiment (treatment doses and time schedule) was identical to the experiment described above with NSG mice except for the inoculation of NK cells, since CB17-SCID mice have their own functional NK cells.
For the second subcutaneous human plasmacytoma model, CB17-SCID mice (20 female mice, 5-6 weeks old; from The Jackson Laboratory) were used. The design of the experiment (treatment doses and time schedule) was identical to the one performed with NSG mice except for the inoculation of human NK cells, since CB17-SCID mice hold their own functional NK cells (Dorshkind et al., J Immunol 134:3798-3801, 1985).
In the second xenograft plasmacytoma model, CB17-SCID mice bearing a subcutaneous plasmacytoma derived from MM1.S cells were randomized to receive vehicle, daratumumab, EDO-S101 or the double combination. Mice were treated with EDO-S101 on Mondays and daratumumab was administered on Tuesdays. […] Furthermore, statistical differences in survival were also found between the combination vs vehicle (58 days±2.739 vs 34 days±2.191 days, respectively; p=0.003).

CD38 = CD38 surface expression in MM cell lines by flow cytometry; format: cell-based, human
Protocol: (§1) Cell Treatment with EDO-S101 MM cells (MM1S, JJN3, KMS12-BM, RPMI-8226, U266, MOLP-8) were either treated with a control (0 μM EDO-S101, DMSO vehicle) or treated with EDO-S101 (0.1, 0.5, 1 or 2.5 μM in DMSO) for 48 hours, unless indicated otherwise.
For surface staining, cells were incubated with the appropriate antibodies and 7AAD (Immunostep) for 15 min in the dark. Data were acquired using a FACSCalibur cytometer (BD Biosciences) and analyzed using Infinicyt™ software (Cytognos). Specifically, the expression of CD38 or ligands for NK cell activating receptors (MICA, MICB, ULBP1-3, PVR and CD112) in MM cell lines was determined on the viable cell population (7AAD-). In primary myeloma cells, the expression of CD38 was analyzed over the viable myeloma population using the panel CD138-FITC/CD56-PE/7AAD/CD38-APC, whereas MICA/B-AF488/CD56-PE/7AAD/CD38-APC panel was used to determine MICA/B expression. Normalized median fluorescence intensity (MFI) was calculated by dividing median fluorescence obtained with the specific antibody by median fluorescence of the corresponding isotype control. MFI for each treatment was expressed as a percentage relative to the control (100%, cells cultured in media with DMSO). […]

JJN3 = assay: Percentage of viable MM cells after treatment; format: cell-based; conditions: Homo sapiens, JJN-3, read-out: percentage of viable cells
Protocol: as §1

MOLP-8 = assay: Percentage of viable MM cells after treatment; format: cell-based; conditions: Homo sapiens, MOLP-8, read-out: percentage of viable cells
Protocol: as §1

[2] = tested on: MM cell lines (MM.1S, RPMI-8226, MOLP-8); assay: NK-cell direct cytotoxicity on pre-treated MM cells; format: cell-based, human; conditions: pre-treatment 2.5 μM 48 hours, NK cells ratio 1:1, 4 hours, vs DMSO-pretreated
Protocol: (§2) ADCC, CDC and apoptosis via cross-linking To assess the effect of tinostamustine pre-treatment on cytotoxic mechanisms mediated by daratumumab, MM cell lines were first incubated in presence of tinostamustine (2.5 μM) or DMSO for 48 hours. Cells were then washed to remove tinostamustine or DMSO from the culture medium, and the corresponding cytotoxic assay (ADCC, CDC or apoptosis via cross-linking) was performed.
(§3) For the evaluation of ADCC, tinostamustine or DMSO pre-treated cells were cocultured with NK cells obtained from healthy donors in the presence of daratumumab (1 μg/ml) or the corresponding isotype control for 4 hours (ratio 1:1). Briefly, peripheral blood mononuclear cells (PBMCs) were isolated from healthy donor buffy coats by Lymphoprep density gradient centrifugation. […] In all three assays, the cytotoxic effect on MM cells was evaluated by flow cytometry with Annexin V/7AAD staining after treatment with daratumumab. […]
(§4) MM cells (MM1.S, RPMI-8226, MOLP-8 cells pre-treated with 0 or 2.5 μM EDO-S101 in accordance with the methods outlined above) were co-cultured with NK-cells (ratio 1:1), in the presence of daratumumab (1 μg/mL) or the corresponding isotype control, for 4 hours at 37° C. […] ADCC was then evaluated using flow cytometry in accordance with the methods outlined above, using the following panel: CD38me-FITC/AnnexinV-PE/7AAD/CD45-APC.

[3] = tested on: MM cell lines (MM.1S, RPMI-8226, MOLP-8); assay: Daratumumab-mediated ADCC on pre-treated MM cells; format: cell-based, human; conditions: pre-treatment 2.5 μM 48 hours, NK cells 1:1 + daratumumab 1 μg/mL, 4 hours, vs DMSO-pretreated
Protocol: as §2, §3, §4

MICA = MICA expression on MM patients' plasma cells ex vivo; format: cell-based, human; conditions: 6 out of the 9 patients analyzed, 48 hours
Protocol: (§5) For surface staining, cells were incubated with the appropriate antibodies and 7AAD (Immunostep) for 15 min in the dark. Data were acquired using a FACSCalibur cytometer (BD Biosciences) and analyzed using Infinicyt™ software (Cytognos). Specifically, the expression of CD38 or ligands for NK cell activating receptors (MICA, MICB, ULBP1-3, PVR and CD112) in MM cell lines was determined on the viable cell population (7AAD-). In primary myeloma cells, the expression of CD38 was analyzed over the viable myeloma population using the panel CD138-FITC/CD56-PE/7AAD/CD38-APC, whereas MICA/B-AF488/CD56-PE/7AAD/CD38-APC panel was used to determine MICA/B expression. Normalized median fluorescence intensity (MFI) was calculated by dividing median fluorescence obtained with the specific antibody by median fluorescence of the corresponding isotype control. MFI for each treatment was expressed as a percentage relative to the control (100%, cells cultured in media with DMSO).

MICB = MICB expression on MM patients' plasma cells ex vivo; format: cell-based, human; conditions: 3 out of 6 patients analyzed, 48 hours
Protocol: as §5

Cn1c(CCCCCCC(=O)NO)nc2cc(N(CCCl)CCCl)ccc21 [EDO-S101, 7-(5-(bis(2-chloroethyl)amino)-1-methyl-1H-benzo[d]imidazol-2-yl)-N-hydroxyheptanamide]
overall median survival [1]: 51 days | percentage of CD38+ cell population (CD38; JJN3 cell line, 1 and 2.5 μM): significantly increased | CD38 surface expression (normalized MFI) (CD38; MM1.S, JJN3, KMS12-BM, RPMI-8226, U226, MOLP-8, 0.1, 0.5, 1 and 2.5 μM, 48 hours, relative to DMSO control, only exception NCI-H929): significantly increased | viability at 2.5 µM (JJN3): 55.5% | viability at 2.5 µM (MOLP-8): 25.6% | percentage of dead myeloma cells, NK-cell direct cytotoxicity (no daratumumab) [2]: significantly enhances | percentage of dead myeloma cells, NK-cell direct cytotoxicity (no daratumumab) ([2]; listed as tinostamustine): significantly increased | percentage of dead myeloma cells, daratumumab-mediated ADCC [3]: significantly enhanced | percentage of dead myeloma cells, daratumumab-mediated ADCC ([3]; listed as tinostamustine): higher | expression of MICA in tinostamustine-treated vs DMSO-treated patient cells (MICA): at least twice | increase of MICB expression after treatment, patient cells (MICB): more than 1.5 fold
